Data: patent US4419348A, “Anthracycline glycoside compositions, their use and preparation” (priority 1981, dated 1983)
“Also recorded” adds a separate entry of the source. Counter-ions that a name gives are not always drawn.

Columns and labels:
[1] = Electron microscopy of cardiac tissue (cardiotoxicity); type: in vivo, DBA/2 mice; settings: 15 mg/kg i.v.; day three, five and seven; listed as free Adriamycin, hydrochloride
Experimental: To determine whether the reduced cardiac uptake of Adriamycin in cardiolipin complex encapsulated liposomes prevented cardiotoxicity, electron microscope studies of this organ were performed. DBA/2 mice were injected i.v. with free drug or drug entrapped in cardiolipin complex encapsulated liposomes at a dose of 15 mg/kg. Three mice in each group were sacrificed by cervical dislocation on day three, five and seven and hearts were immediately removed and placed in physiological saline. The apex of the left ventricle with part of the septum was dissected out and minced into one cubic mm blocks and fixed in 2.5% glutaraldehyde buffered with 0.1 M cacodylate, pH 7.2 for two hours at room temperature. The specimens were rinsed in buffer, osmicated in Bennett and Luft's collidin buffered osmium tetroxide, dehydrated in graded ethanols and acetone, and embedded in Epon. For electron microscopy, preliminary 1 μm Epon sections were stained with alkaline toluidine blue and appropriate areas were chosen for ultrathin sectioning, following which random sections were taken on 200 mesh copper grids and stained with uranyl acetate and lead citrate. A JEOL 100 S Electron microscope at an accelerating voltage of 80 KeV was utilized for viewing the sections.

[2] = system: murine P388 ascitic leukemia; assay: Antitumor activity against P388 ascitic leukemia, survival; type: in vivo, DBA/2 mice; settings: 4 mg/kg i.p., 24 hours after 1×10^5 P388 cells i.p.
Experimental: To determine whether encapsulation of Adriamycin cardiolipin complex into liposomes reduced the antitumor activity of the drug, the effectiveness of liposomes-encapsulated Adriamycin cardiolipin complex against the murine P388 ascitic leukemia in DBA/2 mice was studied. Mice were injected i.p with 1×10^5 cells of P388 leukemia. Twenty-four hours after tumor implanation, mice were administered intraperitoneally free Adriamycin or cardiolipin complex-encapsulated liposome at a dose of 4 mg/kg. Control mice received 0.9% NaCl or blank liposomes representing the same concentration of lipids as used to encapsulate Adriamycin cardiolipin complex. All injections were made on 2% body weight basis. Mice were weighed on day of injection, doses of drugs were calculated on body weight basis, and the survival time of mice was recorded in days.
Mice weighing 20 to 25 g were given i.p. injections of 10^5 cells and 24 hours later free or cardiolipin complex-encapsulated liposome Adriamycin was administered.

[3] = pharmacokinetic studies; cited from earlier work
[4] = in vivo; settings: mouse, iv, 4 mg/kg
[5] = in vivo; cited from earlier work

Row | SMILES | myocardial toxic damage by electron microscopy [1] | T/C (Treated vs. Control), survival [2] | uptake by heart muscle (in words) [3] | Cmax [4] | Tmax [4] | cumulative dose correlated with cumulative myocardial damage [5] | cardiotoxicity (in words) [5]
1 | COc1cccc2c1C(=O)c1c(O)c3c(c(O)c1C2=O)C[C@@](O)(C(=O)CO)C[C@@H]3O[C@H]1C[C@H](N)[C@H](O)[C@H](C)O1 [Adriamycin, doxorubicin hydrochloride] | loss and fragmentation of myofilaments with concomitant clearing of organelles and swelling of sarcoplasmic areas; also recorded: degenerative changes with vacuolation of the smooth endoplasmic reticulum and loss of myofibrils; also recorded: Progression of damage could be seen with greater intensity on day 7 | 132% | taken up avidly and preferentially by heart muscle | 8300 ng/g | 30 min | > 500 mg/m^2 | 
2 | COc1cccc2c1C(=O)c1c(O)c3c(c(O)c1C2=O)C[C@@](O)(C(C)=O)C[C@@H]3O[C@H]1C[C@H](N)[C@H](O)[C@H](C)O1 [daunorubicin] |  |  |  |  |  |  | cardiotoxic effects
